The target in assay [1] is tryptophanase of Bacteroides tetaiotaomicron (Bacteroides thetaiotaomicron, UniProt Q8A7N2). In words: Tryptophanase enzyme inhibitory activity (LDH-coupled NADH loss). Particulars: 10 mM L-tryptophan, 30 min preincubation at 37° C., absorbance at 340 nm. The format is biochemical. On the procedure:
Tryptophanase inhibitory activity was evaluated by a method using lactate dehydrogenase (LDH). The reaction time-dependent reduction in NADH conjugated with the enzymatic reaction, with LDH, of pyruvic acid produced through the enzymatic reaction of L-tryptophan as a substrate with tryptophanase, was measured with a spectrophotometer (Phillips-R S et al., Biochemistry, 23, 6228-6234 (1984)). Enzyme inhibitory activity obtained without adding a test compound (by adding DMSO alone) in the presence of tryptophanase was used as a control. As the enzyme, tryptophanase of Bacteroides tetaiotaomicron (Genbank accession number: HC914434.1) was used.
A test compound solution was prepared by dissolving each test compound in DMSO at concentrations (from 30 mM to 30 nM at 10-fold common ratio). LDH, NADH and L-tryptophan were dissolved, using distilled water, respectively to concentrations of 80 units/mL, 10 mM and 50 mM. Bacteroides tryptophanase was prepared to 30 mg/mL. A potassium phosphate buffer was used as the buffer.
A reaction solution A was dispensed at 284.8 μL per well into a 96-well plate, and the test compound solution was added at 3.2 μL per well to obtain a final concentration of 1/100 (reaction solution B). The reaction solution B was incubated at 37° C. for 30 minutes, L-tryptophan was added thereto at 32 μL per well to obtain a final concentration of […] (reaction solution C), and the enzyme reaction was performed at 37° C. over 30 minutes with absorbance at 340 nm measured for monitoring the NADH loss. Based on the NADH loss, the tryptophanase inhibitory activity of the compound was evaluated.

The test system of the next assay is Bacteroides. Briefly: Indole production suppressing effect in viable bacterium. The format is cell-based. Particulars: 5 mM L-Tryptophan assay medium, anaerobic, indole in culture supernatant, read-out: Bacteroides Indole Production Inhibitory Activity(IC50). The method, then: The effect of a tryptophanase inhibitory compound to suppress indole production from a viable bacterium can be evaluated through the following operation.
When E. coli (Eschelicia coli) is used as a strain known to produce indole, the strain is cultured in an LB medium at 37° C. for 12 to 18 hours under anaerobic conditions, and then, suspended in an assay medium (5 mM L-Tryptophan/PBS(+)/25 mM HEPES (pH8)) in such a manner as to obtain O.D. of about 0.3. When bacteroides is used, the strain is cultured in a modified GAM medium at 37° C. for 12 to 18 hours under anaerobic conditions, and then suspended in an assay medium (5 mM L-Tryptophan/PBS(+)/25 mM HEPES (pH8)) in such a manner as to obtain O.D. of about 1.1. The thus obtained viable bacterial suspension prepared to have a final concentration of a compound of 1 μM to 10 mM is dispensed at 200 μL per well into a 96-well plate and cultured at 37° C. for 2 to 4 hours under anaerobic conditions, O.D., an ATP concentration (that can be quantitatively determined by using BacTiter-Glo (Promega Corporation)) and an indole concentration in the culture supernatant (that can be quantitatively determined by utilizing Ehrlich reaction) are measured. The effect of the tryptophanase inhibitory compound to suppress indole production from a viable bacterium can be evaluated depending on the degree of lowering of the indole concentration in the culture supernatant. It can be checked whether or not the effect is derived from a function other than tryptophanase inhibition, such as a bactericidal function or a bacterial growth inhibitory function, depending on lowering of the O.D. or reduction in the ATP concentration or by performing a generally practiced antibacterial activity test (a MIC (minimum growth inhibition concentration) test) using levofloxacin or the like as a positive control.
The activities of inhibiting indole production of the compounds of the respective examples shown in Table 13 were measured by the above-described method using Bacteroides to evaluate the effect of inhibiting indole production.

The next assay deals with plasma indoxyl sulfate. In words: Effect of reducing plasma indoxyl sulfate concentration in mice. It counts as in vivo. Particulars: oral gavage, plasma 6 hours after L-tryptophan. The method, then: An effect of a tryptophanase inhibitory compound to reduce plasma indoxyl sulfate concentration in a mouse can be evaluated through the following operation.
After fasting male BALB/c mice overnight, a tryptophanase inhibitory compound dissolved or suspended at a concentration of 0.01 to 10 mg/mL in 0.5% methylcellulose (MC) solution used as a solvent and 0.5% MC solution are orally administered by gavage at a volume of 10 mL/kg respectively to test compound groups and to a solvent control group. 30 minutes after the administration of the test compound or the solvent, L-tryptophan, that is, a substrate of tryptophanase, is orally administered by gavage at a dose of 1 to 3 g/kg. The L-tryptophan is suspended in a 0.5% tragacanth solution. For 12 hours after the administration of the L-tryptophan, blood is collected over time from a tail vein by using a hematocrit tube. The thus obtained blood is centrifuged at 11,000 rpm for 5 minutes to collect plasma, and the indoxyl sulfate concentration in the plasma is measured singly by liquid chromatography (fluorescence detection) or its combination with a mass spectrometer used subsequently. Plasma indoxyl sulfate concentration in the test compound group against the plasma indoxyl sulfate concentration in the solvent control group is calculated as, for example, a ratio of the area under a curve of the indoxyl sulfate concentration, and thus, the efficacy of each compound in vivo can be compared.
The indoxyl sulfate concentrations in plasma obtained by using the compounds of the respective examples shown in Table 14 below were measured by the above-described method to evaluate the plasma indoxyl sulfate suppressing effect.

pIC50: −log10 of the molar value.

tryptophanase of Bacteroides tetaiotaomicron, sequence (Q8A7N2 entry or part of it, change not shown): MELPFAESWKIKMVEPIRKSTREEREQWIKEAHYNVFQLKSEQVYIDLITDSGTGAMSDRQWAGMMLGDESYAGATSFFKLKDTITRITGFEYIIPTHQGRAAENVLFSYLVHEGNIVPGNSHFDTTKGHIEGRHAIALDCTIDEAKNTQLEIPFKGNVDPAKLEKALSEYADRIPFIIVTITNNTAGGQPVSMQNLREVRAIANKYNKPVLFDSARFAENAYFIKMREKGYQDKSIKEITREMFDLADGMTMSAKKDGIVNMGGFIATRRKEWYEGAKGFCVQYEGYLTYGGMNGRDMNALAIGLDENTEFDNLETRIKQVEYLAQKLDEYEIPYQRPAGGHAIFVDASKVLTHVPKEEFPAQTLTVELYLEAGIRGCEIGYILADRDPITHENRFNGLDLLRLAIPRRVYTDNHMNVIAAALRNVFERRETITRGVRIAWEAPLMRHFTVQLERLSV

On to `CCC(CC)(NC(=O)c1ccc(N)cc1)C(=O)O` [Compound of Example 1, 2-[(4-Aminobenzoyl)amino]-2-ethylbutanoic Acid], for which the pIC50 – broadly, the negative decadic logarithm of the IC50, by convention in mol/L – in assay [1] is 4.57. Same read-out and setting: for `CCC(CC)(NC(=O)c1ccc(N)c(C)c1)C(=O)O` [Compound of Example 2, 2-[(4-Amino-3-methylbenzoyl)amino]-2-ethylbutanoic Acid] the value was 5.11. On the same count and under the same terms, for `CCC(CC)(NC(=O)c1cc(C)c(N)c(C)c1)C(=O)O` [Compound of Example 3, 2-[(4-Amino-3,5-dimethylbenzoyl)amino]-2-ethylbutanoic Acid] the value was 5.10; for `CCC(NC(=O)c1ccc(N)c(C)c1)(C(=O)O)C1CC1` (stereo not shown) [Compound of Example 4, 2-[(4-Amino-3-methylbenzoyl)amino]-2-cyclopropyl butanoic Acid], 5.77.

As to `CCC(NC(=O)c1ccc(N)c(Cl)c1)(C(=O)O)C1CC1` (stereo not shown) [Compound of Example 5, 2-[(4-Amino-3-chlorobenzoyl)amino]-2-cyclopropyl butanoic Acid], the pIC50 in assay [1] was 6.00. On to `CCC(CC)(NC(=O)c1cc(Cl)c(N)cc1OC)C(=O)O` [Compound of Example 6, 2-[(4-Amino-5-chloro-2-methoxybenzoyl)amino]-2-ethylbutanoic Acid], for which the pIC50 in the assay with Bacteroides is above 5.52; in assay [1], 6.70. Further, the “Plasma Indoxyl Sulfate Reduction Effect in Male BALB/c Mouse (Indoxyl sulfate reduction effect in plasma 6 hours after administration of L-tryptophan: ED75-, mg/kg)” value (“Plasma Indoxyl Sulfate Reduction Effect” for short) with plasma indoxyl sulfate was 1 mg/kg. For the compound `CCC(CC)(NC(=O)c1cc(F)c(N)c(Cl)c1)C(=O)O` [Compound of Example 7, 2-[(4-Amino-3-chloro-5-fluorobenzoyl)amino]-2-ethylbutanoic Acid], the pIC50 in assay [1] was 5.16. Same read-out and setting: for `CCOc1cc(N)c(Cl)cc1C(=O)NC(C)(C)C(=O)O` [Compound of Example 8, N-(4-Amino-5-chloro-2-ethoxybenzoyl)-2-methylalanine] the value was 5.89; for `CC(C)Oc1cc(N)c(Cl)cc1C(=O)NC(C)(C)C(=O)O` [Compound of Example 9, N-[4-Amino-5-chloro-2-(propan-2-yloxy)benzoyl)-2-methylalanine], 6.41.

In the case of `CC[C@@](C)(NC(=O)c1cc(Cl)c(N)cc1OC)C(=O)O` [Compound of Example 10, (−)-N-(4-Amino-5-chloro-2-methoxybenzoyl)-D-isovaline], the pIC50 in the assay on Bacteroides is above 5.52; in assay [1], 5.82. For the same compound, in the assay on plasma indoxyl sulfate, the “Plasma Indoxyl Sulfate Reduction Effect” value was 1 mg/kg. For `CCOc1cc(N)c(Cl)cc1C(=O)N[C@](C)(CC)C(=O)O` [Compound of Example 11, (−)-N-(4-Amino-5-chloro-2-ethoxybenzoyl)-D-isovaline], in that order: above 5.52, 7.05 and 1 mg/kg. In assay [1], `CC[C@](C)(NC(=O)c1cc(Cl)c(N)cc1OC)C(=O)O` [Compound of Example 12, (+)-N-(4-Amino-5-chloro-2-methoxybenzoyl)-L-isovaline] gave a pIC50 of 6.51. On the same count and under the same terms, for `CCOc1cc(N)c(Cl)cc1C(=O)N[C@@](C)(CC)C(=O)O` [Compound of Example 13, (+)-N-(4-Amino-5-chloro-2-ethoxybenzoyl)-L-isovaline] the value was 7.10; for `CCCOc1cc(N)c(Cl)cc1C(=O)NC(C)(C)C(=O)O` [Compound of Example 14, N-(4-Amino-5-chloro-2-propoxybenzoyl)-2-methylalanine], 6.70. Take `CC[C@@](C)(NC(=O)c1cc(Br)c(N)cc1OC)C(=O)O` [Compound of Example 15, (−)-N-(4-Amino-5-bromo-2-methoxybenzoyl)-D-isovaline]: the pIC50 in the assay with Bacteroides was above 5.52; in assay [1], 6.11. For the same compound, in the assay on plasma indoxyl sulfate, the “Plasma Indoxyl Sulfate Reduction Effect” value is recorded as 1 mg/kg. In turn, `CC[C@](C)(NC(=O)c1cc(Br)c(N)cc1OC)C(=O)O` [Compound of Example 17, (+)-N-(4-Amino-5-bromo-2-methoxybenzoyl)-L-isovaline] gave a pIC50 in assay [1] of 6.85.

For the compound `CC[C@](C)(NC(=O)c1cc(I)c(N)cc1OC)C(=O)O` [Compound of Example 18, (+)-N-(4-Amino-5-iodo-2-methoxybenzoyl)-L-isovaline], in assay [1], the pIC50 was 7.00.

As for `CCOc1cc(N)c(Br)cc1C(=O)N[C@@](C)(CC)C(=O)O` [Compound of Example 19, (+)-N-(4-Amino-5-bromo-2-ethoxybenzoyl)-L-isovaline], the pIC50 in assay [1] was 7.22. Still for that read-out and setting: for `CCOc1cc(N)c(I)cc1C(=O)N[C@@](C)(CC)C(=O)O` [Compound of Example 20, (+)-N-(4-Amino-2-ethoxy-5-iodobenzoyl)-L-isovaline] the value was 7.30. Same read-out and setting: for `CCOc1cc(N)c(I)cc1C(=O)N[C@](C)(CC)C(=O)O` [Compound of Example 22, (−)-N-(4-Amino-2-ethoxy-5-iodobenzoyl)-D-isovaline] the value was 7.10; for `CC[C@@](C)(NC(=O)c1cc(C(F)(F)F)c(N)cc1OC)C(=O)O` [Compound of Example 26, (−)-N-(4-Amino-2-methoxy-5-(trifluoromethyl)benzoyl)-D-isovaline], 6.08; for `CC[C@@](C)(NC(=O)c1cc(C)c(N)cc1OC)C(=O)O` [Compound of Example 28, N-(4-Amino-2-methoxy-5-methylbenzoyl)-D-isovaline], 5.50. On the same count and under the same terms, for `CCOc1cc(N)c(C#N)cc1C(=O)N[C@](C)(CC)C(=O)O` [Compound of Example 29, (−)-N-(4-Amino-5-cyano-2-ethoxybenzoyl)-D-isovaline] the value was 7.70; for `CC[C@@](C)(NC(=O)c1cc(F)c(N)cc1OC)C(=O)O` [Compound of Example 30, (−)-N-(4-Amino-5-fluoro-2-methoxybenzoyl)-D-isovaline], 5.25; for `CC[C@@](C)(NC(=O)c1cc(Cl)c(N)cc1OC(F)F)C(=O)O` [Compound of Example 31, (−)-N-[4-Amino-5-chloro-2-(difluoromethoxy)benzoyl]-D-isovaline], 6.96. In assay [1], `CCCOc1cc(N)c(F)cc1C(=O)NC(C)(C)C(=O)O` [Compound of Example 32, N-(4-Amino-5-fluoro-2-propoxybenzoyl)-2-methylalanine] had a pIC50 of 6.27.
